What all share (test): NCI anticancer screen, dose series, 48 h
Assay [1] deals with SK-MEL-2 melanoma.
Assay [2] has as its system COLO 205 colon.
The subject of assay [3] is SF-268 CNS.
For assay [4], the system named is T-47D breast.
The test system of assay [5] is PC-3 prostate.
The subject of assay [6] is M14 melanoma.
Assay [7] has as its system SNB-75 CNS.
Assay [8] concerns CAKI-1 renal.
Assay [9] has as its system A498 renal.
For assay [10], the system named is HCT-116 colon.
Assay [11] relates to MDA-MB-231 breast.

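Exposure lasted 48 hours, with cells grown in 96-well plates and compounds tested at five concentrations. The concentration for full growth arrest is given as TGI.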

The record followed here is PubChem BioAssay (NCI).

Regarding `CCOC(=O)C1=C(N2CCCC2)C(=O)C(C(=O)OCC)C1` (stereo not drawn), the TGI in assay [1], in assay [2], in assay [3], in assay [4], in assay [5] and in [6] was greater than 100 µM each time. The TGI in assay [7], in [8], in assay [9], in assay [10] and in assay [11] was greater than 100 µM in each case.
In the case of `CC(Cl)(CCC(Cl)C(C)(C)Cl)C(=O)CBr` (stereo not drawn), the TGI in [1] is 30.3 µM; in [2], 18.4 µM; in [3], 31.7 µM; in assay [4] it was 50.7 µM; in assay [5], 28.2 µM; in assay [6], 21.8 µM. In addition, the TGI stood at 26.5 µM in assay [7]; 27.8 µM in assay [8]; 31.1 µM in assay [9]; 18.2 µM in assay [10]; 23.9 µM in assay [11].
Regarding `COC(=O)CCCc1nc2ccccc2nc1N=Nc1ccccc1`, the TGI in assay [1] was greater than 100 µM; in assay [2], 31.2 µM; in assay [3], greater than 100 µM; in assay [4], greater than 100 µM; in assay [5], greater than 100 µM; in [6], 76.7 µM. Further, the TGI in assay [7], in [8], in assay [9], in assay [10] and in assay [11] was greater than 100 µM throughout.
